Reference: the supplement of paper PMC10307832

Experiments:
Test in all cases: relative viability (nuclei count vs DMSO), 5 days (fraction); higher = more cells survive
[1] = compound: C1CCC(CC1)N(CCNCCC2=C3C(=C(C=C2)O)NC(=O)CO3)C(=O)CCNCCC4=CC(=C(C=C4)Cl)Cl [AZ505] + CCNC(=O)c1noc(-c2cc(C(C)C)c(O)cc2O)c1-c1ccc(CN2CCOCC2)cc1 [Luminespib] (partner 0.01 µM)
Outline: (§1)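 Nuclei were stained with Hoechst during a one-step fixation (final 0.05% Triton X-100, 1% formaldehyde, 1 ug/ml Hoechst) carried out 5 days after dosing, then counted on 4× images. The cells, lung cancer lines in 1536-well plates, had been dosed by pin tool the day after seeding with one drug alone or a fixed anchor-drug dose plus five library-drug doses (not always all listed) in √10 steps. Relative viability is the nuclei count in treated wells divided by that in vehicle wells, and each value is the median of duplicate plates.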

[2] = compound: C1CCC(CC1)N(CCNCCC2=C3C(=C(C=C2)O)NC(=O)CO3)C(=O)CCNCCC4=CC(=C(C=C4)Cl)Cl [AZ505] + O=C(c1cc(Cc2n[nH]c(=O)c3ccccc23)ccc1F)N1CCN(C(=O)C2CC2)CC1 [Olaparib] (partner 8 µM)
Outline: as §1

[3] = compound: Cn1c(=O)n(-c2ccc(C(C)(C)C#N)cc2)c2c3cc(-c4cnc5ccccc5c4)ccc3ncc21 [Dactolisib] + CS(=O)(=O)N1CCN(Cc2cc3nc(-c4cccc5[nH]ncc45)nc(N4CCOCC4)c3s2)CC1 [Pictilisib] (partner 1 µM)
Outline: as §1

[4] = compound: Cn1c(=O)n(-c2ccc(C(C)(C)C#N)cc2)c2c3cc(-c4cnc5ccccc5c4)ccc3ncc21 [Dactolisib] + NC(=O)Nc1cc(-c2cccc(F)c2)sc1C(=O)N[C@H]1CCCNC1 [AZD7762] (partner 0.2 µM)
Outline: as §1

Cell Line | relative viability ([1]; first compound 0.08 µM) | relative viability ([1]; first compound 0.253 µM) | relative viability ([1]; first compound 0.8 µM) | relative viability ([1]; first compound 2.53 µM) | relative viability ([1]; first compound 8 µM) | relative viability ([2]; first compound 0.08 µM) | relative viability ([2]; first compound 0.253 µM) | relative viability ([2]; first compound 0.8 µM) | relative viability ([2]; first compound 2.53 µM) | relative viability ([2]; first compound 8 µM) | relative viability ([3]; first compound 0.002 µM) | relative viability ([3]; first compound 0.006325 µM) | relative viability ([3]; first compound 0.02 µM) | relative viability ([3]; first compound 0.06325 µM) | relative viability ([3]; first compound 0.2 µM) | relative viability ([4]; first compound 0.002 µM) | relative viability ([4]; first compound 0.006325 µM) | relative viability ([4]; first compound 0.02 µM) | relative viability ([4]; first compound 0.06325 µM) | relative viability ([4]; first compound 0.2 µM)
NCI-H647 | 0.122 | 0.221 | 0.119 | 0.134 | 0.138 | 0.521 | 0.739 | 0.547 | 0.533 | 0.706 | 0.448 | 0.407 | 0.409 | 0.227 | 0.151 | 0.36 | 0.337 | 0.276 | 0.159 | 0.111
NCI-H1792 | 0.359 | – | 0.452 | 0.478 | 0.404 | 0.432 | 0.447 | 0.404 | 0.517 | 0.321 | 0.323 | 0.246 | 0.218 | 0.0901 | 0.0962 | 0.748 | 0.448 | 0.569 | 0.0821 | 0.0508
ChaGo-K-1 | 0.513 | 0.603 | 0.556 | 0.673 | 0.474 | 0.404 | 0.439 | 0.431 | 0.402 | 0.469 | 0.723 | 0.744 | 0.491 | 0.923 | 0.552 | 0.913 | 0.845 | 0.811 | 0.877 | 0.814
LOU-NH91 | 0.326 | 0.331 | 0.331 | 0.347 | 0.38 | 0.87 | 0.897 | 0.886 | 0.903 | 0.894 | 0.586 | 0.499 | 0.525 | 0.494 | 0.496 | 0.753 | 0.734 | 0.69 | 0.575 | 0.533
